SMILES strings stand for the structures.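 Exposure lasted 48 hours, with cells grown in 96-well plates and compounds tested at five concentrations. The concentration for 50% growth inhibition is given as GI50. The concentration for full growth arrest is given as TGI.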 Some results are limits rather than exact numbers.

Among the test systems are SF-268 CNS; CAKI-1 renal; NCI-H23 lung; MDA-MB-231 breast; TK-10 renal; A549 NSCLC; HT29 colon; CCRF-CEM leukemia; SF-539 CNS; MCF7 breast.
Assay in all cases: inhibition of tumour cell growth, NCI panel, 48 h

`COc1cc2c3c(n(CCCN(CCCN(CCCn4c5c(c6ccccc6c4=O)C(=O)c4ccccc4-5)C(=O)OC(C)(C)C)C(=O)OC(C)(C)C)c(=O)c2cc1OC)-c1cc2c(cc1C3=O)OCO2`: the GI50 was greater than 100 µM with SF-268 CNS; 9.85 µM with CAKI-1 renal; greater than 100 µM in the assay with NCI-H23 lung; 28.5 µM in the assay with MDA-MB-231 breast; 50.1 µM with TK-10 renal; greater than 100 µM in the assay on A549 NSCLC. In addition, in the assay on HT29 colon, the GI50 is greater than 100 µM. The TGI in the assay on SF-268 CNS, in the assay on CAKI-1 renal, in the assay with NCI-H23 lung, in the assay with MDA-MB-231 breast, with TK-10 renal and in the assay on A549 NSCLC was greater than 100 µM in each case. Further, the TGI in the assay on HT29 colon is greater than 100 µM.

Turning to `O=C([O][Hg][c]1ccccc1)c1ccccc1`, the GI50 is 0.324 µM in the assay on CCRF-CEM leukemia; 1.89 µM in the assay on SF-268 CNS; 1.8 µM with CAKI-1 renal; 1.58 µM in the assay with SF-539 CNS; 2.05 µM in the assay with NCI-H23 lung; 1.86 µM in the assay with MDA-MB-231 breast. Moreover, the GI50 with TK-10 renal was 1.6 µM; in the assay on A549 NSCLC, 12.7 µM; with HT29 colon, 2.94 µM. Moreover, the TGI in the assay on CCRF-CEM leukemia worked out at 2.24 µM; in the assay with SF-268 CNS it was 4.78 µM; in the assay on CAKI-1 renal, 3.66 µM; in the assay on SF-539 CNS, 3.26 µM; with NCI-H23 lung, 4.84 µM; in the assay with MDA-MB-231 breast, 4.62 µM. The TGI in the assay with TK-10 renal stood at 2.95 µM; in the assay with A549 NSCLC, 40 µM; in the assay on HT29 colon it was 9.82 µM.

Consider `CC(=O)OCC12CN(C#N)C3C4COC(CC41)C1(C(=O)N(C)c4ccccc41)C32` (centres undefined), for which the TGI was 53 µM in the assay with CCRF-CEM leukemia; greater than 100 µM with SF-268 CNS; 82.9 µM in the assay with CAKI-1 renal; 41.4 µM in the assay on MCF7 breast; 44.6 µM in the assay with NCI-H23 lung; 64.9 µM in the assay on MDA-MB-231 breast. In addition, the TGI with TK-10 renal is 66.5 µM; in the assay with A549 NSCLC, greater than 100 µM; in the assay on HT29 colon, greater than 100 µM.

Take `O=[N+]([O-])c1ccc(/C=C/c2nc3ccc(Cl)cc3[nH]2)cc1`: the GI50 in the assay on SF-268 CNS is greater than 100 µM; in the assay on CAKI-1 renal it was 34.6 µM; in the assay with MCF7 breast it was 21.5 µM; in the assay with SF-539 CNS, 15.9 µM; in the assay with NCI-H23 lung, 54.5 µM; in the assay on MDA-MB-231 breast, 26.5 µM. The GI50 in the assay on TK-10 renal is 28.2 µM; in the assay on A549 NSCLC, 37.8 µM; in the assay on HT29 colon, 17.8 µM. The TGI in the assay on SF-268 CNS was greater than 100 µM; in the assay on CAKI-1 renal, 91 µM; in the assay on MCF7 breast, greater than 100 µM; with SF-539 CNS, 39.4 µM; with NCI-H23 lung, greater than 100 µM; with MDA-MB-231 breast, greater than 100 µM. Also, the TGI in the assay with TK-10 renal, in the assay with A549 NSCLC and with HT29 colon was greater than 100 µM each time.

With `N#CC(C#N)=CNCCN1CCN(C=C(C#N)C#N)CC1`, the TGI in the assay on SF-268 CNS, in the assay with CAKI-1 renal, with MCF7 breast, with SF-539 CNS, with NCI-H23 lung and in the assay with MDA-MB-231 breast was greater than 100 µM in each case. Further, the TGI in the assay with TK-10 renal, in the assay on A549 NSCLC and with HT29 colon was greater than 100 µM throughout.

In the case of `O=C(CCCn1c2c(sc3ccccc32)c(=O)n2nnc(-c3ccccc3)c12)NCCc1cnc[nH]1`, the GI50 in the assay on CCRF-CEM leukemia is 0.0368 µM; in the assay with SF-268 CNS, 1.8 µM; in the assay on MCF7 breast, 1.1 µM; in the assay on SF-539 CNS, less than 0.0144 µM; in the assay on NCI-H23 lung it was 2.71 µM; in the assay on MDA-MB-231 breast, 1.91 µM. For the same molecule, the figures for the GI50 in the assay on TK-10 renal and in the assay with HT29 colon were 2 µM and 0.719 µM, respectively. The TGI with SF-268 CNS came to 4.35 µM; with MCF7 breast, 2.43 µM; in the assay with SF-539 CNS, 0.111 µM; with NCI-H23 lung it was 9.6 µM; in the assay on MDA-MB-231 breast it was 3.5 µM; in the assay with TK-10 renal it was 3.75 µM. In the assay on HT29 colon, the TGI was 2.36 µM.

Consider `O=C1/C(=C/c2ccc([N+](=O)[O-])s2)Oc2cc(Cl)ccc21`, for which the GI50 is 0.325 µM in the assay on CCRF-CEM leukemia; 0.944 µM with MCF7 breast; 0.404 µM with MDA-MB-231 breast; 8.27 µM in the assay with TK-10 renal; 2.67 µM with A549 NSCLC. Besides, the TGI in the assay on CCRF-CEM leukemia is 1.48 µM; with MCF7 breast, greater than 100 µM; with MDA-MB-231 breast, 1.75 µM; in the assay on TK-10 renal, greater than 21.1 µM; with A549 NSCLC, greater than 100 µM.

For `O=Cc1cccc2ccc3ccccc3c12`, the TGI in the assay with SF-268 CNS stood at 43.1 µM; in the assay on CAKI-1 renal, 46.5 µM; in the assay on MCF7 breast, 37.4 µM; in the assay with SF-539 CNS, 23 µM; in the assay with NCI-H23 lung, 66.5 µM; in the assay with MDA-MB-231 breast, 77.3 µM. Besides, the TGI with TK-10 renal is 40.2 µM; in the assay with A549 NSCLC, 85.3 µM; with HT29 colon it was 54.2 µM.

Consider `CC(c1cc(Cl)ccc1O)c1cc(Cl)ccc1O`, for which the GI50 in the assay with SF-268 CNS is 4.33 µM; in the assay on CAKI-1 renal, 2.61 µM; in the assay on MCF7 breast it was 3.19 µM; in the assay on SF-539 CNS, 3.52 µM; with NCI-H23 lung, 2.83 µM; with MDA-MB-231 breast, 3.88 µM. Moreover, the figures for the GI50 in the assay on TK-10 renal, in the assay with A549 NSCLC and in the assay on HT29 colon were 11.8 µM, 4.15 µM and 2.74 µM, respectively. The TGI with SF-268 CNS was determined as 16.9 µM; in the assay with CAKI-1 renal, 16.4 µM; with MCF7 breast it was 16.5 µM; in the assay on SF-539 CNS, 12.9 µM; in the assay on NCI-H23 lung it was 8.32 µM; in the assay with MDA-MB-231 breast, 16.2 µM. Also, the TGI was found to be 24.7 µM in the assay with TK-10 renal, 18.9 µM in the assay with A549 NSCLC and 9.13 µM in the assay on HT29 colon.

In the case of `Cc1ccc([Se](=C(C(=O)c2ccccc2)C(=O)c2ccccc2)c2ccc(C)cc2)cc1`, the TGI with SF-268 CNS is greater than 100 µM; in the assay on CAKI-1 renal it was 57.7 µM; with MCF7 breast it was greater than 100 µM; in the assay on SF-539 CNS, 66 µM; in the assay with NCI-H23 lung it was 59.2 µM; in the assay on MDA-MB-231 breast, 35.2 µM. The TGI is 94.6 µM in the assay with TK-10 renal, greater than 100 µM in the assay with A549 NSCLC and 35.2 µM with HT29 colon.

`CC1(C)CC(=O)C=C(/C=C/Sc2c(Cl)c(Cl)nc(Cl)c2Cl)C1`: the GI50 in the assay with SF-268 CNS is 13 µM; in the assay on CAKI-1 renal it was 2.23 µM; with MCF7 breast, 2.47 µM; in the assay with SF-539 CNS, 11.8 µM; in the assay with NCI-H23 lung, 6.34 µM; in the assay with MDA-MB-231 breast it was 7.22 µM. Besides, the GI50 in the assay on TK-10 renal is 19.6 µM; in the assay on A549 NSCLC it was 15.4 µM; in the assay with HT29 colon it was 16.5 µM. In addition, the TGI was 32.4 µM in the assay on SF-268 CNS; 5.4 µM in the assay with CAKI-1 renal; 8.05 µM in the assay on MCF7 breast; 26.4 µM in the assay with SF-539 CNS; 19.3 µM in the assay with NCI-H23 lung; 20.4 µM with MDA-MB-231 breast. The TGI in the assay on TK-10 renal stood at 35.5 µM; in the assay with A549 NSCLC it was 29.8 µM; in the assay with HT29 colon, 47.1 µM.

For `CN(C)C1CCN(Cc2ccc(NC(=O)c3cncc(C#Cc4cnc(N)c5ncccc45)c3)cc2C(F)(F)F)CC1`, the GI50 in the assay with CCRF-CEM leukemia is 1.54 µM; in the assay on SF-268 CNS, 1.68 µM; with CAKI-1 renal, 8.44 µM; in the assay with SF-539 CNS, 2.13 µM; in the assay with NCI-H23 lung it was 7.9 µM; in the assay on MDA-MB-231 breast, 0.742 µM. Moreover, the values for the GI50 with TK-10 renal, in the assay with A549 NSCLC and with HT29 colon were 9.69 µM, 8.25 µM and 1.3 µM, respectively. The TGI was found to be 6.07 µM in the assay with CCRF-CEM leukemia; 4.72 µM with SF-268 CNS; 15.6 µM in the assay on CAKI-1 renal; 8.98 µM with SF-539 CNS; 19.9 µM with NCI-H23 lung; 1.61 µM with MDA-MB-231 breast. Moreover, the TGI with TK-10 renal is 19.5 µM; in the assay on A549 NSCLC, 19.2 µM; in the assay with HT29 colon it was 6.82 µM.

As for `COc1cc(-c2cc3ncccc3c3nc(OCCN(C)C)c4cccnc4c23)cc(OC)c1OC`, the GI50 is 0.714 µM with CCRF-CEM leukemia; 0.637 µM in the assay on SF-268 CNS; 0.468 µM with CAKI-1 renal; 0.389 µM with MCF7 breast; 0.741 µM with SF-539 CNS; 0.619 µM in the assay on NCI-H23 lung. Also, the results for the GI50 in the assay on TK-10 renal, with A549 NSCLC and with HT29 colon were 0.294 µM, 0.346 µM and 0.383 µM, respectively. In addition, the TGI in the assay on CCRF-CEM leukemia was 8.09 µM; in the assay with SF-268 CNS, 11 µM; in the assay on CAKI-1 renal, 3.14 µM; in the assay on MCF7 breast, 14.8 µM; in the assay on SF-539 CNS, 3.39 µM; in the assay on NCI-H23 lung, 3.31 µM. In addition, the TGI in the assay on TK-10 renal was 1.39 µM; with A549 NSCLC, 1.54 µM; in the assay with HT29 colon, greater than 100 µM.

On to `Cc1cc(=O)[nH]c(CNC(=O)c2ccc3ccccc3c2)n1`, for which the TGI in the assay on CCRF-CEM leukemia, in the assay on SF-268 CNS, in the assay with CAKI-1 renal, in the assay with SF-539 CNS, with NCI-H23 lung and in the assay with TK-10 renal was greater than 100 µM each time. For the same molecule, the TGI with A549 NSCLC and in the assay on HT29 colon was greater than 100 µM throughout.

`CNC(=O)c1nn(C)c2c1C(C)(C)Cc1cnc(Nc3cccc(N4CCN(C)CC4)c3)nc1-2`: the GI50 is 0.382 µM with CCRF-CEM leukemia; 0.931 µM with SF-268 CNS; 0.0636 µM in the assay with CAKI-1 renal; 0.304 µM in the assay with MCF7 breast; 0.406 µM in the assay with SF-539 CNS; 0.372 µM in the assay on NCI-H23 lung. Moreover, the results for the GI50 with TK-10 renal, with A549 NSCLC and with HT29 colon were 0.271 µM, 0.34 µM and 0.524 µM, respectively. Besides, the TGI was greater than 26.8 µM in the assay on CCRF-CEM leukemia; 9.36 µM in the assay on SF-268 CNS; 1.9 µM in the assay on CAKI-1 renal; 15.5 µM in the assay on MCF7 breast; 3.06 µM in the assay on SF-539 CNS; 9.81 µM in the assay on NCI-H23 lung. Also, the TGI with TK-10 renal is 24.4 µM; with A549 NSCLC, 13.8 µM; with HT29 colon, greater than 35 µM.

The values are drawn from PubChem BioAssay (NCI).
